Where two headings read alike, the source gives them in different places.
How the values were obtained:
DNMT3B [1] = molecular target: T1, DNMT3B (Homo sapiens, UniProt Q9UBC3); parameters: method as in PMID 34790902; settings: Pappalardi et al.; cited from earlier work
T1 construct: purchased Reaction Biology Corporation

DNMT3A [2] = molecular target: T2, DNMT3A (Homo sapiens, UniProt Q9Y6K1); assay: HotSpot radioisotope methyltransferase inhibition assay, DNMT3A; assay type: biochemical
T2 construct: purchased Reaction Biology Corporation
Experimental: The inhibition of the enzymatic activity of DNMT1, DNMT3A, and DNMT3B was tested using the HotSpotSM platform for methyltransferase assays available at Reaction Biology Corporation. HotSpotSM is a low volume radioisotope-based assay that uses tritium-labeled AdoMet (3H-SAM) as a methyl donor. The three test compounds diluted in dimethyl sulfoxide were added using acoustic technology (Echo550, Labcyte, San Jose, CA, USA) into an enzyme/substrate mixture in the nano-liter range. The corresponding reactions were commenced by adding 3H-SAM and incubated at 30 °C. Total final methylations on the substrate (Poly dI-dC in DNMT1, 3A, and 3B assays) were identified by a filter binding method implemented in Reaction Biology. Data analysis was done with Graphed Prism software (La Jolla, CA, USA) for curve fits. The enzymatic inhibition assays were carried out at 1 μM of SAM. In all assays, SAH was used as a standard positive control. The three compounds were tested first with DNMT1 at one 100 μM concentration in duplicate. […] The research group has recently contracted the screening services of Reaction Biology Corporation to identify a novel DNMTi.

DNMT3B [3] = molecular target: T1, DNMT3B; assay: HotSpot radioisotope methyltransferase inhibition assay, DNMT3B; assay type: biochemical; settings: for inhibition of DNMT3B (in words): enzymatic inhibition assays
G9a [4] = settings: Figure 1, activity as available in the literature; cited from earlier work
DNMT3B [5] = molecular target: T1, DNMT3B; parameters: method as in PMID 29953809; settings: Figure 1, activity as available in the literature; cited from earlier work
DNMT3B/3L = system: DNMT3B/3L; parameters: method as in PMID 29953809; settings: Figure 1, activity as available in the literature; cited from earlier work
DNMT3A/3L = system: DNMT3A/3L; parameters: method as in PMID 29953809; settings: Figure 1, activity as available in the literature; cited from earlier work
DNMT3A [6] = molecular target: T2, DNMT3A; parameters: method as in PMID 34790902; settings: Pappalardi et al.; cited from earlier work
DNMT1 [7] = molecular target: T3, DNMT1 (Homo sapiens, UniProt P26358); parameters: method as in PMID 29953809; settings: Figure 1, activity as available in the literature; cited from earlier work
T3 construct: purchased Reaction Biology Corporation

[8] = system: human acute myeloid leukemia xenograft; parameters: method as in PMID 29953809; settings: human acute myeloid leukemia xenograft in a mouse model; cited from earlier work
[9] = system: human breast adenocarcinoma (MDA-MB-231) cells; parameters: method as in PMID 21780790; settings: read-out: cell toxicity EC50; cited from earlier work
G9a [10] = system: G9a; parameters: method as in PMID 21780790; settings: enzymatic, in vitro; cited from earlier work
DNMT1 [11] = molecular target: T3, DNMT1; assay: HotSpot radioisotope methyltransferase inhibition assay, DNMT1; assay type: biochemical; settings: for relative enzymatic activity of DNMT1 as percentages: 100 μM compound, mean of two measurements ± standard deviation; for IC50: 10-concentration IC50, 1 μM SAM, mean of two measurements; for DNMT1: % inhibition / inhibition at 100 µM: single concentration 100 µM, duplicate, 1 μM SAM
[12] = system: H3K9me2 levels in human breast adenocarcinoma (MDA-MB-231) cells; parameters: method as in PMID 21780790; settings: read-out: potency in reducing H3K9me2 levels; cited from earlier work

T3 sequence (P26358 whole entry): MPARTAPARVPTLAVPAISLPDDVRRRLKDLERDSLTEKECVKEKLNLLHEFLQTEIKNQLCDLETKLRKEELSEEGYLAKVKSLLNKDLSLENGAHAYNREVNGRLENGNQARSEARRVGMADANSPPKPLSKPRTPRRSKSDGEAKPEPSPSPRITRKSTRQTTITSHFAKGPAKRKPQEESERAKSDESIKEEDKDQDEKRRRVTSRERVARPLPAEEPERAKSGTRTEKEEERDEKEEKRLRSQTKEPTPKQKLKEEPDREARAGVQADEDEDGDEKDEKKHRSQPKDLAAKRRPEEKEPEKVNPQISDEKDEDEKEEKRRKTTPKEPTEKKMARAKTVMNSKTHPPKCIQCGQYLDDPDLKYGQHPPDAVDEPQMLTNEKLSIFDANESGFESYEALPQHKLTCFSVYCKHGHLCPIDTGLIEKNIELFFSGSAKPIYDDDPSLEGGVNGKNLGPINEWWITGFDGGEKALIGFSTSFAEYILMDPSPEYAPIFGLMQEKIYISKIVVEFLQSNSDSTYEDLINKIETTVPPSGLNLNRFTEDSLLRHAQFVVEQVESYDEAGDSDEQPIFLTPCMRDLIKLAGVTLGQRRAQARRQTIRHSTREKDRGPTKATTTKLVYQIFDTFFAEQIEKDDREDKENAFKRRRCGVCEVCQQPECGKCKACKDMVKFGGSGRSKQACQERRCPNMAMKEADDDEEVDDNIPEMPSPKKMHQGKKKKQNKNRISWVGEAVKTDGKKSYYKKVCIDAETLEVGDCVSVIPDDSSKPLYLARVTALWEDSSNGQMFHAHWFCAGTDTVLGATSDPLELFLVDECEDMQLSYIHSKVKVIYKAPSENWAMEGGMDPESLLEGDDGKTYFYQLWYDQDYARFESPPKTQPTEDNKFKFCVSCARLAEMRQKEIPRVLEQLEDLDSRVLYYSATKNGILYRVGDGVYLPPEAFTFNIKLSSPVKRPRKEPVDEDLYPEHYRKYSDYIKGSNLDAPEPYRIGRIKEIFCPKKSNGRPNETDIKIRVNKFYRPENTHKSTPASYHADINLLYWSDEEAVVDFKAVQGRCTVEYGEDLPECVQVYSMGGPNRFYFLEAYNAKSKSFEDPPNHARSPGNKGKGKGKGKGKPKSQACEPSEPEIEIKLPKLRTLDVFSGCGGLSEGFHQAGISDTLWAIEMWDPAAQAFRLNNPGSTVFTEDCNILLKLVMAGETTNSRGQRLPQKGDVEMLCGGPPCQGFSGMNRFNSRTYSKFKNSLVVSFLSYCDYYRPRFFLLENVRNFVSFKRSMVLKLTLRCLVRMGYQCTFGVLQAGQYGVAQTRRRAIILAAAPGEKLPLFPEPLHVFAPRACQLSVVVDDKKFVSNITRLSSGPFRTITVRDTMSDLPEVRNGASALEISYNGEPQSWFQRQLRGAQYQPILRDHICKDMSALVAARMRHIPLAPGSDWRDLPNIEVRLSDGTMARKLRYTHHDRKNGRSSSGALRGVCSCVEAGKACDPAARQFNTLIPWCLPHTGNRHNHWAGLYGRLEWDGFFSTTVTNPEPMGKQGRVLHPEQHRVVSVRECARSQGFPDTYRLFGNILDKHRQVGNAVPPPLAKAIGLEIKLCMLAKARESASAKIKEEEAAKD
T2 sequence (Q9Y6K1 whole entry, looked up): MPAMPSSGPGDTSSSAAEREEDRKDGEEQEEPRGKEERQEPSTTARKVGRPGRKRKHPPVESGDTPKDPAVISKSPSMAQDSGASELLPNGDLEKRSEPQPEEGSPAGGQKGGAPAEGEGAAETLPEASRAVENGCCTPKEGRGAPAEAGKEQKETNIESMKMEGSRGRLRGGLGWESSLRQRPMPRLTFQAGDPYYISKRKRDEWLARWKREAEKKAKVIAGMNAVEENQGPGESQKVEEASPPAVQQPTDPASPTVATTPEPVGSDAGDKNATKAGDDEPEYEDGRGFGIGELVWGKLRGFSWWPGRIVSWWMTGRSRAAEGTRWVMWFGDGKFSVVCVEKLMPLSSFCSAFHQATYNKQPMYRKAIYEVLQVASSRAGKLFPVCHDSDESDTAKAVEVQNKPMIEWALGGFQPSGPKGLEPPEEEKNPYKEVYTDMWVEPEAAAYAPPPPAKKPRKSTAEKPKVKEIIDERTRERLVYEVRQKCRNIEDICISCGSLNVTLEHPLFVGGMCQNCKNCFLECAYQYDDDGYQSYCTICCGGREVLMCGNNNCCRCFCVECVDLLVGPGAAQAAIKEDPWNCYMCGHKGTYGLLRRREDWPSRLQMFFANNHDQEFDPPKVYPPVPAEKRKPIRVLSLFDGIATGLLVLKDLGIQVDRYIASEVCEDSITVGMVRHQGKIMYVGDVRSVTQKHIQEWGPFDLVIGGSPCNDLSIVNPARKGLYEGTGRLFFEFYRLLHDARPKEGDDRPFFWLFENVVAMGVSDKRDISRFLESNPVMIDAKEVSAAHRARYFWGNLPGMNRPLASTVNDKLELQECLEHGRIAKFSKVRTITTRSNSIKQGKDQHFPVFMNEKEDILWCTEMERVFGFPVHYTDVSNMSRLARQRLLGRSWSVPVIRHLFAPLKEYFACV

In the case of `Nc1ncnc2c1ncn2[C@@H]1O[C@H](CSCC[C@H](N)C(=O)O)[C@@H](O)[C@H]1O` [SAH, S-adenosyl-L-homocysteine], the IC50 (DNMT3B [1]) is listed as 90 nM, the IC50 (DNMT3A [2]) is listed as 100 nM and the IC50 (DNMT3B [3]) is listed as 30 nM.
For `Nc1ncn([C@@H]2O[C@H](CO)[C@@H](O)[C@H]2O)c(=O)n1` [compound 1, 5-azacitidine], the IC50 (G9a [4]) is given as over 10000 nM.
In the case of `Nc1ncn([C@H]2C[C@H](O)[C@@H](CO)O2)c(=O)n1` [compound 2, 5-aza-2′-deoxycytidine], the IC50 (G9a [4]) is given as over 10000 nM.
For `Cc1cc(Nc2ccc(NC(=O)c3ccc(Nc4ccnc5ccccc45)cc3)cc2)nc(N)n1` [compound 3], the IC50 (DNMT3B [1]) is given as 7000 nM and the IC50 (G9a [4]) is given as over 10000 nM.
In the case of `COc1ccc(Cl)cc1C(=O)NCCc1ccc(S(=O)(=O)NC(=O)NC2CCCCC2)cc1` [compound 4, Glyburide], the IC50 (DNMT3B [5]) is given as over 100000 nM.
In the case of `CCc1c(C#N)c(SC(C(N)=O)c2ccccc2)nc(N2CCC(N)CC2)c1C#N` (stereo not drawn) [compound 5], the “inhibition of DNMT3B (in words)” value (DNMT3B [1]) is listed as “did not inhibit”, the IC50 (DNMT3B/3L) is listed as over 100000 nM and the IC50 (DNMT3A/3L) is listed as over 100000 nM. The “inhibition of DNMT3A (in words)” value (DNMT3A [6]) was “did not inhibit”.
In the case of `C[C@@H]1O[C@@H](CC(=O)O)CC2=C1C(=O)c1c(O)cccc1C2=O` [compound 6, nanaomycin A], the IC50 (DNMT1 [7]) is given as over 10000 nM.
For `COc1cc2c(NC3CCN(C(C)C)CC3)cc(C3CCCCC3)nc2cc1OCCCN1CCCC1` [compound 7], the IC50 (G9a [4]) is listed as 0.7 nM.
For `COc1cc2c(NC3CCN(C)CC3)cc(-c3ccc(C)o3)nc2cc1OCCCN1CCCC1` [compound 8], the tumor growth inhibition [8] is listed as 70%.
For `COc1cc2nc(N3CCCN(C)CC3)nc(NC3CCN(Cc4ccccc4)CC3)c2cc1OC` [compound 9], the IC50 (DNMT1 [7]) is given as over 10000 nM.
In the case of `COc1cc2c(NC3CCN(C(C)C)CC3)nc(N3CCC(F)(F)CC3)nc2cc1OCCCN1CCCC1` [compound 11], the IC50 (DNMT1 [7]) is listed as over 50000 nM.
For `COc1cc2c(NC3CCN(C4CCCCC4)CC3)nc(N3CCCN(C(C)C)CC3)nc2cc1OCCCN1CCCCC1` [compound 12], the EC50 [9] is listed as 3300 nM, the IC50 (G9a [10]) is listed as 6 nM and the IC50 (DNMT3A [2]) is listed as 4870 nM. For the same compound, the “inhibition of DNMT3B (in words)” value (DNMT3B [3]) was “none of them inhibited”, the IC50 (DNMT3B [3]; read-out: DNMT3B IC50) was over 100000 nM and the “relative enzymatic activity of DNMT1 as percentages” value (DNMT1 [11]) was 0.3 ± 0.10%. For the same compound, the IC50 (DNMT1 [11]) was 30 nM, the “DNMT1: % inhibition” value (DNMT1 [11]) was 99.7% and the inhibition at 100 µM (DNMT1 [11]) was over 99%. For the same compound, the IC50 [12] was 26 nM.
For `COc1cc2c(NC3CCN(CC4CCCCC4)CC3)nc(N3CCCN(C(C)C)CC3)nc2cc1OCCCN1CCCCC1` [compound 13], the EC50 [9] is given as 2800 nM, the IC50 (G9a [10]) is given as 4 nM and the IC50 (DNMT3A [2]) is given as 14700 nM. The “inhibition of DNMT3B (in words)” value (DNMT3B [3]) was “none of them inhibited”, the IC50 (DNMT3B [3]; read-out: DNMT3B IC50) was over 100000 nM and the “relative enzymatic activity of DNMT1 as percentages” value (DNMT1 [11]) was 0.7 ± 0.02%. For the same compound, the IC50 (DNMT1 [11]) was 81 nM, the “DNMT1: % inhibition” value (DNMT1 [11]) was 99.3% and the inhibition at 100 µM (DNMT1 [11]) was over 99%. For the same compound, the IC50 [12] was 25 nM.
With `COc1cc2c(Nc3ccc(NC(=O)c4ccccc4)cc3)ncnc2cc1OCCCN1CCOCC1` [compound 14] the “relative enzymatic activity of DNMT1 as percentages” value (DNMT1 [11]) was 92.6 ± 2.40% and the inhibition at 100 µM (DNMT1 [11]) was 7.4%.

— PMC9102847, “7-Aminoalkoxy-Quinazolines from Epigenetic Focused Libraries Are Potent and Selective Inhibitors of DNA Methyltransferase 1” (Molecules, 2022)
